The numbers were not newly measured in patent US20250017946A1, “COMBINATION OF A BILE ACID AND A PHENYL BUTYRATE COMPOUND FOR THE TREATMENT OF NEURODEGENERATIVE DISEASES” (Amylyx Pharmaceuticals, Inc., priority 2021, published 2025), which cites them from elsewhere.

The series concerns patient populations. The settings on record: for less common or rare adverse events / most commonly reported adverse events: individual component, multiple patient populations.

For the compound `O=C(O)CCCc1ccccc1` [PB, sodium phenylbutyrate], the “less common or rare adverse events” value was “nausea, vomiting, stomach upset, stomach pain, gastritis, headache, and skin rash”; the “most commonly reported adverse events” value is “Menstrual irregularities, decreased appetite, sweat-like body odor, and bad taste”.
On to `C[C@H](CCC(=O)NCCS(=O)(=O)O)[C@H]1CC[C@H]2[C@@H]3[C@@H](O)C[C@@H]4C[C@H](O)CC[C@]4(C)[C@H]3CC[C@]12C` [TURSO, tauroursodeoxycholic acid], for which the “less common or rare adverse events” value was “skin rash and vomiting”; the “most commonly reported adverse events” value was “mild diarrhea, abdominal and pain”. Also, the “most common adverse reactions reported (≥1%)” value (use of TURSO) was “abdominal discomfort, abdominal pain, diarrhea, nausea, pruritus, and rash”.
